Laboratory results: US5922545A, “In vitro peptide and antibody display libraries” (Affymax Technologies N.V., priority 1997, dated 1999)

Tests used:
[1] = tested on: peptidyl transferase activity of 50S ribosomal subunits; conditions: cited from earlier work
mAb D32.39 [2] = test: competition binding assay of synthesized peptides for mAb D32.39; conditions: 50 pM tracer peptide containing the D32.39 epitope sequence, IC50 should approximate the Kd, read-out: binding affinity for mAb D32.39 (IC50)
From the text: FIG. 6. (SEQ. ID NO: 50-74) Amino acid alignment of selected peptide sequences with dynorphin B. The six-residue D32.39 epitope sequence of dynorphin B and the peptide regions similar to it are shown in the box. A total of 6, 13, 19, and 9 independent clones were sequenced from rounds 2, 3, 4 and 5, respectively. The frequency indicates the number of times each sequence occurred among the clones isolated from each round, and the asterisks indicate identical sequences found in different rounds. Binding affinities for D32.39 were determined by chemically synthesizing the indicated peptide sequences and measuring the IC50 as described in the Experimental Examples.
Peptides were synthesized with an Applied Biosystems model 431A peptide synthesizer using Fmoc-protected amino acids. The peptides were purified to greater than 90% purity by HPLC and confirmed by mass spectroscopy. The competition binding assay was performed and included a low concentration (50 pM) of the tracer peptide containing the D32.39 epitope sequence.
Peptides corresponding to some of the enriched sequences were chemically synthesized, purified and their identity confirmed by mass spectrometry. A competition binding assay was used to estimate their affinity for the mAb D32.39 and under the conditions of the assays the IC50 value should approximate the Kd. […]

mAb D32.39 [3] = test: competition binding of radiolabelled polysomes to immobilized mAb D32.39; conditions: wells preincubated with 10 μH dynorphin B peptide for 1 hr at 4° C.
Description: FIG. 2. Specific binding of polysomes to mAb D32.39. Radiolabelled polysomes were isolated from reactions programmed with 1.5 μg of HindIII-linearized plasmid pLM138 or pLM142 and bound to microtiter wells containing the immobilized mAb. The recovered mIRNA was quantitated by TCA precipitation. (Panel A) Binding of polysomes containing the D32.39 epitope (closed boxes) or control (open boxes) sequences. (Panel B) Competition binding assay. Microtiter wells were preincubated with polysome buffer in the absence or presence of 10 μH dynorphin B peptide for 1 hr at 4° C. prior to adding 131,000 cpm of polysomes containing the D32.39 epitope (RQFKVVT) (SEQ ID NO:18) or control (VFKRTVQ) (SEQ ID NO:15) sequences.
Dynal beads were prepared according to the manufacturer. Microtiter wells were prepared for polysome binding by incubating each well with mAb D32.39 (5 μg per well) in PBS (10 mM sodium phosphate pH 7.4/120 mM NaCl/2.7 mM KCl) for 1 hr at 37° C., washing with PBS, blocking with PBS/1% nonfat milk for 1 hr at 37° C. and washing again with polysome buffer. Polysomes, as indicated, were incubated with the antibody for 2 hr at 4° C. […]
Specific Binding of Polysomes to mAb D32.39. The fraction of polysomes capable of binding specifically to mAb D32.39 via the nascent peptide was determined. […]

[4] = biological target: iron response element (IRE); conditions: binds as a monomer; read-out: dissociation constant; cited from earlier work

Molecule: MSTSKNAD [cmlA 8-mer peptide]
- inhibitory activity relative to chloramphenicol ([1]; as inhibitory as chloramphenicol): about 50%
- inhibitory activity relative to the cat 5-mer ([1]; more inhibitory than the cat 5-mer): about 5 fold

Molecule: dynorphin B
- IC50 (mAb D32.39 [2]): 0.29 nM
- blocking of binding of D32.39 epitope polysomes to mAb D32.39 (mAb D32.39 [3]): binding was blocked

B1: IREBP: iron response element binding protein (98.4 kDal), RNA-binding protein (protein, UniProt P21399 1-889, looked up)
Cytoplasmic aconitate …: MSNPFAHLAEPLDPVQPGKKFFNLNKLEDSRYGRLPFSIRVLLEAAIRNCDEFLVKKQDIENILHWNVTQHKNIEVPFKPARVILQDFTGVPAVVDFAAMRDAVKKLGGDPEKINPVCPADLVIDHSIQVDFNRRADSLQKNQDLEFERNRERFEFLKWGSQAFHNMRIIPPGSGIIHQVNLEYLARVVFDQDGYYYPDSLVGTDSHTTMIDGLGILGWGVGGIEAEAVMLGQPISMVLPQVIGYRLMGKPHPLVTSTDIVLTITKHLRQVGVVGKFVEFFGPGVAQLSIADRATIANMCPEYGATAAFFPVDEVSITYLVQTGRDEEKLKYIKKYLQAVGMFRDFNDPSQDPDFTQVVELDLKTVVPCCSGPKRPQDKVAVSDMKKDFESCLGAKQGFKGFQVAPEHHNDHKTFIYDNTEFTLAHGSVVIAAITSCTNTSNPSVMLGAGLLAKKAVDAGLNVMPYIKTSLSPGSGVVTYYLQESGVMPYLSQLGFDVVGYGCMTCIGNSGPLPEPVVEAITQGDLVAVGVLSGNRNFEGRVHPNTRANYLASPPLVIAYAIAGTIRIDFEKEPLGVNAKGQQVFLKDIWPTRDEIQAVERQYVIPGMFKEVYQKIETVNESWNALATPSDKLFFWNSKSTYIKSPPFFENLTLDLQPPKSIVDAYVLLNLGDSVTTDHISPAGNIARNSPAARYLTNRGLTPREFNSYGSRRGNDAVMARGTFANIRLLNRFLNKQAPQTIHLPSGEILDVFDAAERYQQAGLPLIVLAGKEYGAGSSRDWAAKGPFLLGIKAVLAESYERIHRSNLVGMGVIPLEYLPGENADALGLTGQERYTIIIPENLKPQMKVQVKLDTGKTFQAVMRFDTDVELTYFLNGGILNYMIRKMAK
- Kd [4]: 0.02 to 0.05 nM
